Test results taken from patent US20110152227A1, “DEUTERIUM LABELLED DERIVATIVES OF 3-(2-HYDROXY-5-METHYPHENYL)-N,N-DIISOPROPYL-3-PHENYLPROPYLAMINE AND METHODS OF USE THEREOF” (CONCERT PHARMACEUTICALS INC., priority 2008, published 2011).
Where two headings read alike, the source gives them in different places.

Experiment: Evaluation of metabolic stability in human liver microsomes
Format: in vitro ADME
Conditions: for half-life at 1 μM: human, human liver microsomes; for half-life in human liver microsomes as compared to tolterodine: result in words, versus tolterodine
Description: Materials: Human liver microsomes (20 mg/mL) were obtained from Xenotech, LLC (Lenexa, Kans.). β-nicotinamide adenine dinucleotide phosphate, reduced form (NADPH), magnesium chloride (MgCl2), and dimethyl sulfoxide (DMSO) were purchased from Sigma-Aldrich.
The 7.5 mM stock solutions were diluted to 50 μM in acetonitrile (ACN). The 20 mg/mL human liver microsomes were diluted to 0.625 mg/mL in 0.1 M potassium phosphate buffer, pH 7.4, containing 3 mM MgCl2. The diluted microsomes were added to wells of a 96-well deep-well polypropylene plate in duplicate. Ten μL of one of the […] test compound solutions was added to the microsomes and the mixture was pre-warmed for 10 minutes. Reactions were initiated by addition of pre-warmed NADPH solution. The final reaction volume was 0.5 mL and contained 0.5 mg/mL human liver microsomes, 1 μM test compound, and 2 mM NADPH in 0.1 M potassium phosphate buffer, pH 7.4, and 3 mM MgCl2. The reaction mixtures were incubated at 37° C., and 50 μL aliquots were removed at 0, 5, 10, 20, and 30 minutes and added to shallow-well 96-well plates which contained 50 μL of ice-cold ACN with internal standard to stop the reactions. The plates were stored at 4° C. for 20 minutes after which 100 μL of water was added to the wells of the plate before centrifugation to pellet precipitated proteins. Supernatants were transferred to another 96-well plate and analyzed for amounts of parent remaining by LC-MS/MS using an Applied Bio-systems API 4000 mass spectrometer. 7-ethoxy coumarin (1 μM) was used as a positive control. The experiment was repeated as second time to confirm the results.
Data analysis: The in vitro t1/2s for test compounds were calculated from the slopes of the linear regression of % parent remaining (ln) vs incubation time relationship using the following formula: in vitro t1/2=0.693/k, where k=−[slope of linear regression of % parent remaining (ln) vs incubation time]. Data analysis was performed using Microsoft Excel Software.

[1] = pH 7.4, average of Experiment 1 and 2, human liver microsomes, read-out: Ave t1/2
[2] = pH 7.4, human liver microsomes 0.5 mg/mL, 1 μM test compound, 2 mM NADPH, 37° C., 0-30 minutes, Experiment 1, read-out: t1/2 (minutes) Experiment 1
[3] = pH 7.4, human liver microsomes 0.5 mg/mL, 1 μM test compound, 2 mM NADPH, 37° C., 0-30 minutes, Experiment 2 (repeat), read-out: t1/2 (minutes) Experiment 2

| SMILES | half-life at 1 μM [1] [min] | half-life at 1 μM [2] [min] | half-life at 1 μM [3] [min] | half-life in human liver microsomes as compared to tolterodine |
| --- | --- | --- | --- | --- |
| Cc1ccc(O)c(C(CCN(C(C)C)C(C)C)c2ccccc2)c1 (centres unmarked) [Tolterodine, 3-(2-hydroxy-5-methylphenyl)-N,N-diisopropyl-3-phenylpropylamine, reference compound] | 13.8 | 13.4 | 14.2 | – |
| [2H]C([2H])([2H])C([2H])(N(CC[C@H](c1ccccc1)c1cc(C)ccc1O)C([2H])(C([2H])([2H])[2H])C([2H])([2H])[2H])C([2H])([2H])[2H] [Compound 106, (R)-2-(3-(Di(isopropyl-d7)amino)-1-phenylpropyl)-4-methylphenol] | 15.1 | 14.6 | 15.6 | – |
| [2H]C([2H])([2H])c1ccc(O)c([C@H](CCN(C([2H])(C([2H])([2H])[2H])C([2H])([2H])[2H])C([2H])(C([2H])([2H])[2H])C([2H])([2H])[2H])c2ccccc2)c1 [Compound 100] | 25.8 | 23.5 | 28 | substantially increased half-life |
| [2H]C([2H])([2H])c1ccc(O)c([C@H](CCN(C(C)C)C(C)C)c2ccccc2)c1 [Compound 112] | 26.6 | 24.3 | 28.9 | substantially increased half-life |
